Series [1] has as its target T1, WT c-MET (Homo sapiens, UniProt P08581). In kind it is binding. Conditions: Table 1; LLE = pKd – log D.
Series [2] relates to Rat hepatocytes. Put plainly: Rat hepatocyte Clint. Conditions: for RH: rat hepatocytes; for Hepatocytes Rat: Table 4.
In series [3] the target is T1, WT c-MET. In kind it is biochemical. Conditions: LLE = pIC50 – log D.
Series [4] relates to Human hepatocytes. Put plainly: Human hepatocyte Clint. As to conditions: Table 4.
Series [5] can be described thus: Rat plasma pharmacokinetics. Conditions: male, Han Wistar, iv, 0.5 mg/kg.
A short description of series [6]: Human liver microsome Clint. For orientation: Liver microsomes are a subcellular fraction often used to study metabolism.
Setting [7] is: Table 3, human liver microsomes.

Where two headings read alike, the source gives them in different places.

T1 sequence (P08581 25-1390): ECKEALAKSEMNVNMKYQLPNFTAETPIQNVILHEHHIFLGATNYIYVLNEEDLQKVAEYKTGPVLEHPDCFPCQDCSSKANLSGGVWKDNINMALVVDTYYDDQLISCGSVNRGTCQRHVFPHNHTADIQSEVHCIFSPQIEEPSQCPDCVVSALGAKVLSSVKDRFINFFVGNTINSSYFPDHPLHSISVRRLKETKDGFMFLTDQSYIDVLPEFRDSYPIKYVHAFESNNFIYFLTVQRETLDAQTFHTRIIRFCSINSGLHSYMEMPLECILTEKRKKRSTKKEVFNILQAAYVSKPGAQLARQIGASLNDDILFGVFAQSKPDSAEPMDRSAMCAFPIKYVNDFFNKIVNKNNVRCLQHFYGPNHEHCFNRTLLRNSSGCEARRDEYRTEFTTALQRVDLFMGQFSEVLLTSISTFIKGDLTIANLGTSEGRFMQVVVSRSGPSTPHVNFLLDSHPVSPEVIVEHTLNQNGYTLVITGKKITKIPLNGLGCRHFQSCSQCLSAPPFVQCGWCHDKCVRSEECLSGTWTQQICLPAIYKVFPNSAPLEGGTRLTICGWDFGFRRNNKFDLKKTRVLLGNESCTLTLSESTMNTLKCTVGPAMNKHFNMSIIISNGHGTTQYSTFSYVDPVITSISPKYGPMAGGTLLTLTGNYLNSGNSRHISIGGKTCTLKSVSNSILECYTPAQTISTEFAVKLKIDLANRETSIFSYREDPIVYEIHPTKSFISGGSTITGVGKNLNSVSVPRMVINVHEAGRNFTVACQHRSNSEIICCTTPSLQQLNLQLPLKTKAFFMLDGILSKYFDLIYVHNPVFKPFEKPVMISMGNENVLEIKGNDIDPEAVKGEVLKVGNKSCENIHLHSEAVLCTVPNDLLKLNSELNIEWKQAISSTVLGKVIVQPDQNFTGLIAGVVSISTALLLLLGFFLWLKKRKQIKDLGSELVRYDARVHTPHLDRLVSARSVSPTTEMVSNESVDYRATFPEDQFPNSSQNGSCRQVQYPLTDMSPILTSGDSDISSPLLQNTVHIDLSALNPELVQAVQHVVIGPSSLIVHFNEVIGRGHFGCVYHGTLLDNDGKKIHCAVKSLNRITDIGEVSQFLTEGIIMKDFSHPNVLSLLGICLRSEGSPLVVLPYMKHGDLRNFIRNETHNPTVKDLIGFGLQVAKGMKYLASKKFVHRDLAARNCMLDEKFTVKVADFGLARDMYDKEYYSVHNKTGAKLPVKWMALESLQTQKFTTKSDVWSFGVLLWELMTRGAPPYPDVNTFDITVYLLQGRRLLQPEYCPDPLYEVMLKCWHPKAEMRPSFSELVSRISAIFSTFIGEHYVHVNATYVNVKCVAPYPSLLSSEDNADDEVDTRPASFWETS

Take `C[C@@H](c1ccccc1)n1cc(-c2cc(F)cc(F)c2)c(=O)[nH]c1=O` [Compound 3, (S)-5-(3,5-Difluorophenyl)-1-(1-phenylethyl)pyrimidine-2,4(1H,3H)-dione]: the “SPR assay LLE WT” value in series [1] came to 2.9. The compound also had an RH in series [2] (Table 1) of 133 μL/min/10^6 cells.

In the case of `O=c1[nH]c(=O)n(Cc2ccccc2)cc1-c1cc(F)cc(F)c1` [Compound 4, 1-Benzyl-5-(3,5-difluorophenyl)pyrimidine-2,4(1H,3H)-dione], the “SPR assay LLE WT” value in series [1] was <1.0/<1.0. This compound also registered an RH in series [2] (Table 1) of 76.7 μL/min/10^6 cells.

Consider `CC(c1ccccc1Cl)n1cc(-c2cc(F)cc(F)c2)c(=O)[nH]c1=O` (stereo not drawn) [Compound 5, 1-(1-(2-Chlorophenyl)ethyl)-5-(3,5-difluorophenyl)pyrimidine-2,4(1H,3H)-dione], for which, in series [1], the “SPR assay LLE WT” value is 0.82. For the same compound, the RH in series [2] (Table 1) turned out to be 227 μL/min/10^6 cells.

Regarding `CC(c1cccc(Cl)c1)n1cc(-c2cc(F)cc(F)c2)c(=O)[nH]c1=O` (stereo not drawn) [Compound 7, 1-(1-(3-Chlorophenyl)ethyl)-5-(3,5-difluorophenyl)pyrimidine-2,4(1H,3H)-dione], the “SPR assay LLE WT” value in series [1] is 2.2. Also, in series [2] (Table 1), the RH came to 177 μL/min/10^6 cells.

In the case of `CC(c1cccc(-c2cc[nH]n2)c1)n1cc(-c2cc(F)cc(F)c2)c(=O)[nH]c1=O` (stereo not drawn) [Compound 8, 1-(1-(3-(1H-Pyrazol-3-yl)phenyl)ethyl)-5-(3,5-difluorophenyl)pyrimidine-2,4(1H,3H)-dione], the “SPR assay LLE WT” value in series [1] is 2.1. In addition, the RH in series [2] (Table 1) is on record as 24.7 μL/min/10^6 cells.

Consider `CC(c1cccc(-c2cn[nH]c2)c1)n1cc(-c2cc(F)cc(F)c2)c(=O)[nH]c1=O` (stereo not drawn) [Compound 9, 1-(1-(3-(1H-Pyrazol-4-yl)phenyl)ethyl)-5-(3,5-difluorophenyl)pyrimidine-2,4(1H,3H)-dione], for which, in series [1], the “SPR assay LLE WT” value stood at 2.7. In series [2] (Table 1), this compound came in with an RH of 22.3 μL/min/10^6 cells.

With `CC(c1cccc(-c2c[nH]cn2)c1)n1cc(-c2cc(F)cc(F)c2)c(=O)[nH]c1=O` (stereo not drawn) [Compound 10, 1-(1-(3-(1H-Imidazol-5-yl)phenyl)ethyl)-5-(3,5-difluorophenyl)pyrimidine-2,4(1H,3H)-dione], the “SPR assay LLE WT” value in series [1] is 3.1. This compound also showed an RH in series [2] (Table 1) of 6.03 μL/min/10^6 cells.

In series [2] (Table 1), `CC(c1ccccc1)n1cc(-c2ccccc2)c(=O)[nH]c1=O` (stereo not drawn) [Compound 11, 5-Phenyl-1-(1-phenylethyl)pyrimidine-2,4(1H,3H)-dione] returned an RH of 185 μL/min/10^6 cells.

On to `CC(c1ccccc1)n1cc(-c2ccccn2)c(=O)[nH]c1=O` (stereo not drawn) [Compound 12, 1-(1-Phenylethyl)-5-(pyridin-2-yl)pyrimidine-2,4(1H,3H)-dione], for which the “SPR assay LLE WT” value in series [1] is recorded as 3.2. The RH in series [2] (Table 1) was 300 μL/min/10^6 cells.

Take `CC(c1ccccc1)n1cc(-c2ncccn2)c(=O)[nH]c1=O` (stereo not drawn) [Compound 13, 1′-(1-Phenylethyl)-[2,5′-bipyrimidine]-2′,4′(1′H,3′H)-dione]: the RH in series [2] (Table 1) amounted to 4.67 μL/min/10^6 cells.

With `CC(c1ccccc1)n1cc(-c2ccc3[nH]ccc3c2)c(=O)[nH]c1=O` (stereo not drawn) [Compound 14, 5-(1H-Indol-5-yl)-1-(1-phenylethyl)pyrimidine-2,4(1H,3H)-dione], in series [1], the “SPR assay LLE WT” value is on record as 3.4/3.4. The RH in series [2] (Table 1) worked out at 217 μL/min/10^6 cells.

Turning to `CC(c1ccccc1)n1cc(-c2cccc3cn[nH]c23)c(=O)[nH]c1=O` (stereo not drawn) [Compound 15, 5-(1H-Indazol-7-yl)-1-(1-phenylethyl)pyrimidine-2,4(1H,3H)-dione], the “SPR assay LLE WT” value in series [1] worked out at 4.2. In addition, in series [3] (Table 2), the “ADP-Glo assay LLE WT” value amounted to 3.5. The compound also showed an RH in series [2] (Table 1) of 46.1 μL/min/10^6 cells.

As to `CC(c1cccc(-c2c[nH]cn2)c1)n1cc(-c2cccc3cn[nH]c23)c(=O)[nH]c1=O` (stereo not drawn) [Compound 16, 1-(1-(3-(1H-Imidazol-5-yl)phenyl)ethyl)-5-(1H-indazol-7-yl)pyrimidine-2,4(1H,3H)-dione], the “SPR assay LLE WT” value in series [1] came out at 4.1. The compound further showed an RH in series [2] (Table 1) of 5.84 μL/min/10^6 cells.

For `CC(c1ccccc1)n1cc(-c2cccc3c(F)n[nH]c23)c(=O)[nH]c1=O` (stereo not drawn) [Compound 17, 5-(3-Fluoro-1H-indazol-7-yl)-1-(1-phenylethyl)pyrimidine-2,4(1H,3H)-dione], in series [3] (Table 2), the “ADP-Glo assay LLE WT” value worked out at 3.1. For the same compound, the RH in series [2] (Table 2) is 49.4 μL/min/10^6 cells.

`Cc1n[nH]c2c(-c3cn(C(C)c4ccccc4)c(=O)[nH]c3=O)cccc12` (stereo not drawn) [Compound 18, 5-(3-Methyl-1H-indazol-7-yl)-1-(1-phenylethyl)pyrimidine-2,4(1H,3H)-dione]: the “ADP-Glo assay LLE WT” value in series [3] (Table 2) stood at 3.6. This compound returned an RH in series [2] (Table 2) of 37.0 μL/min/10^6 cells.

As for `CC(c1ccccc1)n1cc(-c2cccc3c(C#N)n[nH]c23)c(=O)[nH]c1=O` (stereo not drawn) [Compound 19, 7-(2,4-Dioxo-1-(1-phenylethyl)-1,2,3,4-tetrahydropyrimidin-5-yl)-1H-indazole-3-carbonitrile], the “ADP-Glo assay LLE WT” value in series [3] (Table 2) was 3.4. For the same compound, the RH in series [2] (Table 2) stood at 41.4 μL/min/10^6 cells.

For `CC(c1ccccc1)n1cc(-c2c(F)ccc3cn[nH]c23)c(=O)[nH]c1=O` (stereo not drawn) [Compound 20, 5-(6-Fluoro-1H-indazol-7-yl)-1-(1-phenylethyl)pyrimidine-2,4(1H,3H)-dione], the “ADP-Glo assay LLE WT” value in series [3] (Table 2) stood at 3.2. In addition, in series [2] (Table 2), the RH worked out at 28.3 μL/min/10^6 cells.

In the case of `CC(c1ccccc1)n1cc(-c2cc(F)cc3cn[nH]c23)c(=O)[nH]c1=O` (stereo not drawn) [Compound 21, 5-(5-Fluoro-1H-indazol-7-yl)-1-(1-phenylethyl)pyrimidine-2,4(1H,3H)-dione], in series [3] (Table 2), the “ADP-Glo assay LLE WT” value is 3.9. This compound also registered an RH in series [2] (Table 2) of 14.0 μL/min/10^6 cells.

With `CC(c1ccccc1)n1cc(-c2cc(F)cc3c(C#N)n[nH]c23)c(=O)[nH]c1=O` (stereo not drawn) [Compound 22, 7-(2,4-Dioxo-1-(1-phenylethyl)-1,2,3,4-tetrahydropyrimidin-5-yl)-5-fluoro-1H-indazole-3-carbonitrile], the “ADP-Glo assay LLE WT” value in series [3] (Table 2) turned out to be 3.8. In series [2] (Table 2), this compound gave an RH of 51.4 μL/min/10^6 cells.

`CC(c1ccccn1)n1cc(-c2cc(F)cc3c(C#N)n[nH]c23)c(=O)[nH]c1=O` (stereo not drawn) [Compound 23, 7-(2,4-Dioxo-1-(1-(pyridin-2-yl)ethyl)-1,2,3,4-tetrahydropyrimidin-5-yl)-5-fluoro-1H-indazole-3-carbonitrile]: the “ADP-Glo assay LLE WT” value in series [3] (Table 3) worked out at 3.8. For the same compound, the RH in series [2] (Table 3) is reported as 3.08 μL/min/10^6 cells.

Regarding `CC(c1ccc(F)cc1)n1cc(-c2cc(F)cc3c(C#N)n[nH]c23)c(=O)[nH]c1=O` (stereo not drawn) [Compound 24, 5-Fluoro-7-(1-(1-(4-fluorophenyl)ethyl)-2,4-dioxo-1,2,3,4-tetrahydropyrimidin-5-yl)-1H-indazole-3-carbonitrile], in series [3] (Table 3), the “ADP-Glo assay LLE WT” value is given as 3.4. For the same compound, the RH in series [2] (Table 3) was determined as 4.40 μL/min/10^6 cells.

Turning to `C[C@@H](c1ccc(F)cc1)n1cc(-c2cc(F)cc3c(C#N)n[nH]c23)c(=O)[nH]c1=O` [Compound 25, (S)-5-Fluoro-7-(1-(1-(4-fluorophenyl)ethyl)-2,4-dioxo-1,2,3,4-tetrahydropyrimidin-5-yl)-1H-indazole-3-carbonitrile], the “ADP-Glo assay LLE WT” value in series [3] (Table 3) worked out at 3.8. Also, the RH in series [2] (Table 3) amounted to 5.13 μL/min/10^6 cells. For the same compound, the “Hepatocytes Rat” value in series [2] is 5.13 μL/min/10^6 cells. Further, in series [4], the “Hepatocytes Human” value is given as 2.48 μL/min/10^6 cells. In addition, in series [5], the clearance is 3 mL/min/kg.

On to `CC(c1ccc(F)cc1)n1cc(-c2cc(F)cc3cn[nH]c23)c(=O)[nH]c1=O` (stereo not drawn) [Compound 26, 5-(5-Fluoro-1H-indazol-7-yl)-1-(1-(4-fluorophenyl)ethyl)pyrimidine-2,4(1H,3H)-dione], for which, in series [3] (Table 3), the “ADP-Glo assay LLE WT” value worked out at 3.5. Besides, the RH in series [2] (Table 3) was 11.9 μL/min/10^6 cells.

Consider `C#Cc1n[nH]c2c(-c3cn(C(C)c4ccccc4)c(=O)[nH]c3=O)cccc12` (stereo not drawn) [Compound 28, 5-(3-Ethynyl-1H-indazol-7-yl)-1-(1-phenylethyl)pyrimidine-2,4(1H,3H)-dione], for which the “ADP-Glo assay LLE WT” value in series [3] (Table 3) was 4.2. In addition, the RH in series [2] (Table 3) is on record as 9.10 μL/min/10^6 cells.

On to `C#Cc1n[nH]c2c(-c3cn(C(C)c4ccccc4)c(=O)[nH]c3=O)cc(F)cc12` (stereo not drawn) [Compound 29, 5-(3-Ethynyl-5-fluoro-1H-indazol-7-yl)-1-(1-phenylethyl)pyrimidine-2,4(1H,3H)-dione], for which the RH in series [2] (Table 3) is given as 5.99 μL/min/10^6 cells. Besides, in series [2], the “Hepatocytes Rat” value came to 5.99 μL/min/10^6 cells. Further, the “Hepatocytes Human” value in series [4] was 4.27 μL/min/10^6 cells. For the same compound, the HLM in series [6] (setting [7]) and in series [6] (Table 4) was 12.2 µL/min/mg each time. This compound gave a clearance in series [5] of 60 mL/min/kg.

For `C#Cc1n[nH]c2c(-c3cn([C@@H](C)c4ccccc4)c(=O)[nH]c3=O)cc(F)cc12` [Compound 30, (S)-5-(3-Ethynyl-5-fluoro-1H-indazol-7-yl)-1-(1-phenylethyl)pyrimidine-2,4(1H,3H)-dione], in series [2] (Table 3), the RH is 15.0 μL/min/10^6 cells.

Consider `C#Cc1n[nH]c2c(-c3cn(C(C)c4ccccn4)c(=O)[nH]c3=O)cc(F)cc12` (stereo not drawn) [Compound 31, 5-(3-Ethynyl-5-fluoro-1H-indazol-7-yl)-1-(1-(pyridin-2-yl)ethyl)pyrimidine-2,4(1H,3H)-dione], for which the “ADP-Glo assay LLE WT” value in series [3] (Table 3) stood at 4.8. The compound also displayed an RH in series [2] (Table 3) of 4.81 μL/min/10^6 cells. Also, the “Hepatocytes Rat” value in series [2] came to 4.81 μL/min/10^6 cells. In addition, in series [4], the “Hepatocytes Human” value came out at 1.29 μL/min/10^6 cells. The HLM in series [6] (setting [7]) and in series [6] (Table 4) was under 3.00 µL/min/mg throughout. For the same compound, the clearance in series [5] was determined as 13 mL/min/kg.

Turning to `C#Cc1n[nH]c2c(-c3cn([C@@H](C)c4ccccn4)c(=O)[nH]c3=O)cc(F)cc12` [Compound 32, (S)-5-(3-Ethynyl-5-fluoro-1H-indazol-7-yl)-1-(1-(pyridin-2-yl)ethyl)pyrimidine-2,4(1H,3H)-dione], the “ADP-Glo assay LLE WT” value in series [3] (Table 3) was determined as 5.1. The compound further had an RH in series [2] (Table 3) of 6.07 μL/min/10^6 cells.

By clearance is commonly meant a measure of how efficiently the substance is removed, as volume per time. Read a high clearance as a high capacity for elimination.
